Assay results reported in the supplement of paper PMC10307832.

What follows are cell lines tested with CC(C)C[C@H](NC(=O)[C@H](CCc1ccccc1)NC(=O)CN1CCOCC1)C(=O)N[C@@H](Cc1ccccc1)C(=O)N[C@@H](CC(C)C)C(=O)[C@@]1(C)CO1 [Carfilzomib] + CC(=O)Nc1cccc(-n2c(=O)n(C3CC3)c(=O)c3c(Nc4ccc(I)cc4F)n(C)c(=O)c(C)c32)c1 [Trametinib] (partner 0.02 µM) (assay: relative viability (nuclei count vs DMSO), 5 days (fraction); higher = more cells survive). Settings: first compound 0.001 µM.
Method in brief: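 Lung cancer cell lines, seeded in 1536-well plates, were treated the following day by pin tool with a single drug or with five library-drug doses (not always all listed) in √10 steps on top of a fixed anchor-drug dose. Cells were fixed and nuclei stained in one step after 5 days, and nuclei were counted. Relative viability is the nuclei count for treated wells divided by that for vehicle wells, reported as medians of duplicate plates.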

| Cell Line | relative viability |
| --- | --- |
| LU99A | 0.525 |
| LXF-289 | 0.705 |
| NCI-H23 | 0.39 |
| NCI-H322M | 0.505 |
| NCI-H358 | 0.139 |
| NCI-H441 | 0.554 |
| NCI-H460 | 0.116 |
| NCI-H522 | 0.777 |
| NCI-H596 | 0.785 |
| NCI-H647 | 0.415 |
| NCI-H650 | 0.899 |
| NCI-H727 | 0.428 |
| NCI-H838 | 0.517 |
| NCI-H1355 | 0.42 |
| NCI-H1437 | 0.497 |
| NCI-H1648 | 0.685 |

| Cell Line | relative viability |
| --- | --- |
| NCI-H1651 | 0.79 |
| NCI-H1666 | 0.907 |
| NCI-H1734 | 0.67 |
| NCI-H1755 | 0.809 |
| NCI-H1915 | 0.266 |
| NCI-H1944 | 0.457 |
| NCI-H1975 | 0.267 |
| NCI-H1993 | 0.51 |
| NCI-H2085 | 0.498 |
| NCI-H2087 | 0.187 |
| NCI-H2126 | 0.516 |
| NCI-H2170 | 0.931 |
| NCI-H2342 | 0.844 |
| NCI-H2347 | 0.269 |
| NCI-H2405 | 0.758 |

Same assay, conditions: first compound 0.003162 µM

| Cell Line | relative viability |
| --- | --- |
| LU99A | 0.588 |
| LXF-289 | 0.742 |
| NCI-H23 | 0.328 |
| NCI-H322M | 0.49 |
| NCI-H358 | 0.136 |
| NCI-H441 | 0.445 |
| NCI-H460 | 0.143 |
| NCI-H522 | 0.767 |
| NCI-H596 | 0.804 |
| NCI-H647 | 0.529 |
| NCI-H650 | 1.1 |
| NCI-H727 | 0.376 |
| NCI-H838 | 0.575 |
| NCI-H1355 | 0.469 |
| NCI-H1395 | 0.997 |
| NCI-H1437 | 0.568 |

| Cell Line | relative viability |
| --- | --- |
| NCI-H1648 | 0.566 |
| NCI-H1651 | 0.9 |
| NCI-H1666 | 0.852 |
| NCI-H1734 | 0.785 |
| NCI-H1755 | 0.837 |
| NCI-H1915 | 0.302 |
| NCI-H1944 | 0.464 |
| NCI-H1975 | 0.312 |
| NCI-H1993 | 0.471 |
| NCI-H2085 | 0.503 |
| NCI-H2087 | 0.235 |
| NCI-H2126 | 0.61 |
| NCI-H2170 | 0.921 |
| NCI-H2342 | 0.851 |
| NCI-H2347 | 0.23 |
| NCI-H2405 | 0.748 |

Same assay, conditions: first compound 0.01 µM

| Cell Line | relative viability |
| --- | --- |
| LU99A | 0.541 |
| LXF-289 | 0.679 |
| NCI-H23 | 0.428 |
| NCI-H322M | 0.487 |
| NCI-H358 | 0.141 |
| NCI-H441 | 0.236 |
| NCI-H460 | 0.181 |
| NCI-H522 | 0.815 |
| NCI-H596 | 0.952 |
| NCI-H647 | 0.538 |
| NCI-H650 | 1.08 |
| NCI-H727 | 0.46 |
| NCI-H838 | 0.614 |
| NCI-H1355 | 0.422 |
| NCI-H1395 | 1.11 |
| NCI-H1437 | 0.637 |

| Cell Line | relative viability |
| --- | --- |
| NCI-H1648 | 0.592 |
| NCI-H1651 | 0.794 |
| NCI-H1666 | 0.988 |
| NCI-H1734 | 0.627 |
| NCI-H1755 | 0.668 |
| NCI-H1915 | 0.295 |
| NCI-H1944 | 0.398 |
| NCI-H1975 | 0.33 |
| NCI-H1993 | 0.603 |
| NCI-H2085 | 0.478 |
| NCI-H2087 | 0.131 |
| NCI-H2126 | 0.58 |
| NCI-H2170 | 0.863 |
| NCI-H2342 | 0.862 |
| NCI-H2347 | 0.298 |
| NCI-H2405 | 0.686 |

Same assay, conditions: first compound 0.03162 µM

| Cell Line | relative viability |
| --- | --- |
| LU99A | 0.417 |
| LXF-289 | 0.163 |
| NCI-H23 | 0.238 |
| NCI-H322M | 0.507 |
| NCI-H358 | 0.0944 |
| NCI-H441 | 0.103 |
| NCI-H460 | 0.13 |
| NCI-H522 | 0.506 |
| NCI-H596 | 0.69 |
| NCI-H647 | 0.0767 |
| NCI-H650 | 0.798 |
| NCI-H727 | 0.41 |
| NCI-H838 | 0.215 |
| NCI-H1355 | 0.44 |
| NCI-H1395 | 0.566 |
| NCI-H1437 | 0.312 |

| Cell Line | relative viability |
| --- | --- |
| NCI-H1648 | 0.394 |
| NCI-H1651 | 0.304 |
| NCI-H1666 | 0.72 |
| NCI-H1734 | 0.641 |
| NCI-H1755 | 0.769 |
| NCI-H1915 | 0.289 |
| NCI-H1944 | 0.473 |
| NCI-H1975 | 0.102 |
| NCI-H1993 | 0.53 |
| NCI-H2085 | 0.35 |
| NCI-H2087 | 0.0842 |
| NCI-H2126 | 0.563 |
| NCI-H2170 | 0.868 |
| NCI-H2342 | 0.949 |
| NCI-H2347 | 0.292 |
| NCI-H2405 | 0.536 |

Same assay, conditions: first compound 0.1 µM

| Cell Line | relative viability |
| --- | --- |
| LU99A | 0.284 |
| LXF-289 | 0.107 |
| NCI-H23 | 0.0981 |
| NCI-H322M | 0.364 |
| NCI-H358 | 0.0819 |
| NCI-H441 | 0.115 |
| NCI-H460 | 0.0157 |
| NCI-H522 | 0.336 |
| NCI-H596 | 0.205 |
| NCI-H647 | 0.0407 |
| NCI-H650 | 0.169 |
| NCI-H727 | 0.312 |
| NCI-H838 | 0.0888 |
| NCI-H1355 | 0.139 |
| NCI-H1395 | 0.344 |
| NCI-H1437 | 0.194 |
| NCI-H1648 | 0.261 |
| NCI-H1651 | 0.119 |
| NCI-H1666 | 0.513 |
| NCI-H1734 | 0.152 |
| NCI-H1755 | 0.511 |
| NCI-H1915 | 0.106 |
| NCI-H1944 | 0.202 |
| NCI-H1975 | 0.101 |
| NCI-H1993 | 0.481 |
| NCI-H2085 | 0.223 |
| NCI-H2087 | 0.0653 |
